These results are taken from the Kinase Knowledgebase extract (Sharma et al. 2016).

Structures are written as SMILES.

The target in the experiment is ROCK2 (human) (UniProt O75116). As to the kind of experiment: Assessment of ROCK2 Kinase Activity.
Sequence of ROCK2 (human) (O75116 whole entry, looked up): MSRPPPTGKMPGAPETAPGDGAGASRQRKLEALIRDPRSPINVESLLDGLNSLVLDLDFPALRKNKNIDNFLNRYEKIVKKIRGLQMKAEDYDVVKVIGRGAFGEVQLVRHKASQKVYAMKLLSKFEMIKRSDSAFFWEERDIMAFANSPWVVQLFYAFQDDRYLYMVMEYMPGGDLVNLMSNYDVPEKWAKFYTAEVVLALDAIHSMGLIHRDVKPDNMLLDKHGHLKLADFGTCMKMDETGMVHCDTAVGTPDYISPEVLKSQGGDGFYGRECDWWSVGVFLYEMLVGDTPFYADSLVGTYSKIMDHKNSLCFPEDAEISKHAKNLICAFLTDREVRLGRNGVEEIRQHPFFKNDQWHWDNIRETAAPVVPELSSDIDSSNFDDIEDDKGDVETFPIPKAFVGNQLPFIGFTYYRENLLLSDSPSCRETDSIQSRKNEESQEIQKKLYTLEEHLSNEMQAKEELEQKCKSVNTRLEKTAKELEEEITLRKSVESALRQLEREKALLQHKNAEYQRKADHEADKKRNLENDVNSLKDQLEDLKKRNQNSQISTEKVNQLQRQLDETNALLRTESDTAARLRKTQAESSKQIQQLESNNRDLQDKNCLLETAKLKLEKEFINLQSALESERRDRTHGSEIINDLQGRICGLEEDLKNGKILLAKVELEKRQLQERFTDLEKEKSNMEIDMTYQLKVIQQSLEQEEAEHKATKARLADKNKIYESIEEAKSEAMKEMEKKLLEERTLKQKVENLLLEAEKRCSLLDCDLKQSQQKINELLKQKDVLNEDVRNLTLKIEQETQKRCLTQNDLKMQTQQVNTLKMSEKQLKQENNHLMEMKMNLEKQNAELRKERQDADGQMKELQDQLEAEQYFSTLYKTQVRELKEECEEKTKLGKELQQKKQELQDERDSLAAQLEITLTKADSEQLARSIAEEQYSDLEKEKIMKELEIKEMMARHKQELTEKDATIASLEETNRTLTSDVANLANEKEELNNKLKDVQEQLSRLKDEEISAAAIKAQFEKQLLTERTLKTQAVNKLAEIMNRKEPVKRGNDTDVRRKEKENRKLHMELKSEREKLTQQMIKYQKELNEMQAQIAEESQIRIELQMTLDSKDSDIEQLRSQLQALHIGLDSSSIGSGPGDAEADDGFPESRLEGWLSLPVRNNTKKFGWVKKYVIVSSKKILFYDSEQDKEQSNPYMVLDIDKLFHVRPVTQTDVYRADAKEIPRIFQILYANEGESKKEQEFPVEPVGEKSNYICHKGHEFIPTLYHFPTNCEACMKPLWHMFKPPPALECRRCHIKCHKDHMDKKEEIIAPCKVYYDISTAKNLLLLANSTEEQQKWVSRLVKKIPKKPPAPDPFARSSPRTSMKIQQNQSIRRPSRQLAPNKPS

For `COc1cccc(CN(CCCN2CCN(C)CC2)C(=O)c2cc3ccc(-c4cn[nH]c4)nc3[nH]2)c1`, the IC50 is less than 100 nM. In turn, `O=C(NCC1CCCCC1)c1c[nH]c2cc(-c3cn[nH]c3)ccc12` returned an IC50 of less than 100 nM. The value for `COc1cccc(CNC(=O)c2c[nH]c3cc(-c4cn[nH]c4)ccc23)c1` was less than 100 nM; that for `COc1cccc(CNC(=O)c2cc3ccc(-c4c[nH]nc4C)nc3[nH]2)c1` was less than 100 nM; that for `COc1cccc(CN(C)C(=O)c2cn(CCCO)c3cc(-c4cn[nH]c4)ccc23)c1` was less than 100 nM. `COc1cccc(CN(CCN(C)C)C(=O)c2cc3ccc(-c4cn[nH]c4)nc3[nH]2)c1` displayed an IC50 of less than 100 nM. `COc1cccc(CN(C(=O)c2cc3ccc(-c4cn[nH]c4)nc3[nH]2)C2CC2)c1` came in with an IC50 of less than 100 nM. For `COc1cccc(CNC(=O)c2[nH]c3cc(-c4cn[nH]c4)ccc3c2CN2CCCC2c2ccccc2)c1` (configuration not stated) the value was 100 to 1000 nM; for `COc1cccc(CNC(=O)c2cc3ccc(-c4cn[nH]c4)nc3n2CCCO)c1`, less than 100 nM. The value for `COc1cccc(CN(CCCN(C)C)C(=O)c2cn(C)c3cc(-c4cn[nH]c4)ccc23)c1` was less than 100 nM; that for `COc1cccc(CNC(=O)c2[nH]c3cc(-c4cn[nH]c4)ccc3c2CN2CCN(C)CC2)c1` was less than 100 nM; that for `COc1cccc(CN(CCN(C)C)C(=O)c2cn3cc(-c4cn[nH]c4)ccc3n2)c1` was less than 100 nM.

Consider `COc1cccc(CN(C)C(=O)c2cc3ccc(-c4cn[nH]c4)nc3[nH]2)c1`, for which the IC50 was less than 100 nM. The value for `COc1cccc(CCNC(=O)c2n[nH]c3cc(-c4cn[nH]c4)ccc23)c1` was less than 100 nM. For `COc1ccc2c(c1)CC(c1cc(=O)n3cc(-c4cn[nH]c4)ccc3n1)CO2` (configuration not stated) the value was less than 100 nM. For `COc1cccc(CN(C)C(=O)c2n[nH]c3cc(-c4cn[nH]c4)ccc23)c1` the value was less than 100 nM. Consider `COc1cccc(CNC(=O)c2cn3cc(-c4ccnc(N)n4)ccc3n2)c1`, for which the IC50 was in the range of 100 to 1000 nM. The value for `COc1cccc(CNC(=O)c2cn(C)c3cc(-c4cn[nH]c4)ccc23)c1` was less than 100 nM; that for `COc1cccc(CNC(=O)c2cn(CCN3CCCC3)c3cc(-c4cn[nH]c4)ccc23)c1` was less than 100 nM. For `CCCn1nc(C(=O)NCc2cccc(OC)c2)c2ccc(-c3cn[nH]c3)cc21` the value was less than 100 nM. For `COc1cccc(CNC(=O)c2cc3ccc(-c4cn[nH]c4)cc3[nH]2)c1` the value was less than 100 nM; for `COc1cccc(CNC(=O)c2nn(CC3CC3)c3cc(-c4ccnc(N)n4)ccc23)c1`, less than 100 nM. In turn, `COc1cccc(CN(CCN(C)C)C(=O)c2nn(CC3CC3)c3cc(-c4cn[nH]c4)ccc23)c1` gave an IC50 of less than 100 nM. For `COc1cccc(CNC(=O)c2cc3ccc(-c4cn[nH]c4)nc3n2CCN2CCCC2)c1` the value was less than 100 nM; for `COc1cccc(CN(CCN(C)C)C(=O)c2cnc3cc(-c4cn[nH]c4)ccn23)c1`, less than 100 nM; for `COc1cccc(CNC(=O)c2c3ccc(-c4ccnc(N)n4)cc3nn2CC2CC2)c1`, 100 to 1000 nM.

For `COc1cccc(CCNC(=O)c2cn(CCN(C)C)c3cc(-c4cn[nH]c4)ccc23)c1`, the IC50 was 100 to 1000 nM. Compound `COc1ccccc1CNC(=O)c1cn(CCCO)c2cc(-c3cn[nH]c3)ccc12` gave an IC50 of less than 100 nM. The value for `COc1cccc(CN(C)C(=O)c2cc3ccc(-c4cn[nH]c4)cc3[nH]2)c1` was less than 100 nM.

`COc1cccc(CNC(=O)c2cnc3cc(-c4cn[nH]c4)ccn23)c1` registered an IC50 of less than 100 nM. For `COc1ccccc1CNC(=O)c1n[nH]c2cc(-c3cn[nH]c3)ccc12` the value was less than 100 nM; for `COc1ccc2c(c1)CC(c1cc(=O)n3cc(-c4ccncc4)ccc3n1)CO2` (configuration not stated), 100 to 1000 nM. For `COc1cccc(CNC(=O)c2c3ccc(-c4cn[nH]c4)cc3nn2CC2CC2)c1` the value was 100 to 1000 nM; for `COc1cccc(CNC(=O)c2[nH]c3cc(-c4cn[nH]c4)ccc3c2CN(C)Cc2ccccc2)c1`, 100 to 1000 nM; for `COc1cccc(CN(CCN2CCCC2)C(=O)c2cc3ccc(-c4cn[nH]c4)cc3[nH]2)c1`, less than 100 nM. For `COc1cccc(CN(CCN(C)C)C(=O)c2n[nH]c3cc(-c4cn[nH]c4)ccc23)c1` the value was less than 100 nM; for `O=C(NCCc1cccnc1)c1c[nH]c2cc(-c3cn[nH]c3)ccc12`, 100 to 1000 nM; for `COc1cccc(CNC(=O)c2cn(-c3cccc(C(F)(F)F)c3)c3cc(-c4cn[nH]c4)ccc23)c1`, 100 to 1000 nM. The compound `COc1cccc([C@@H](C)NC(=O)c2cn(CCN3CCCC3)c3cc(-c4cn[nH]c4)ccc23)c1` showed an IC50 of less than 100 nM. `O=C(NCc1ccccc1)c1cnc2cc(-c3cn[nH]c3)ccn12` registered an IC50 of less than 100 nM. The value for `COc1cccc(CNC(=O)c2cc3ccc(-c4cn[nH]c4)cc3n2CCCO)c1` was less than 100 nM. For `COc1cccc(CNC(=O)c2nn(C)c3cc(-c4cn[nH]c4)ccc23)c1` the value was less than 100 nM; for `COc1cccc(CN(CC2CC2)C(=O)c2n[nH]c3cc(-c4cn[nH]c4)ccc23)c1`, less than 100 nM. The value for `COc1cccc(CNC(=O)c2cn3cc(-c4cn[nH]c4)ccc3n2)c1` was 100 to 1000 nM; that for `COc1cccc(CN(CCN2CCCC2)C(=O)c2cc3ccc(-c4cn[nH]c4)nc3[nH]2)c1` was less than 100 nM; that for `COc1cccc(CNC(=O)c2nn(CCN(C)C)c3cc(-c4cn[nH]c4)ccc23)c1` was less than 100 nM. As to `Cc1ccccc1CNC(=O)c1n[nH]c2cc(-c3cn[nH]c3)ccc12`, the half-inhibitory concentration (IC50) was less than 100 nM. The value for `COc1ccc(CNC(=O)c2c[nH]c3cc(-c4cn[nH]c4)ccc23)cc1` was 100 to 1000 nM; that for `COc1cccc(CNC(=O)c2n[nH]c3cc(-c4cn[nH]c4)ccc23)c1` was less than 100 nM. For `COc1cccc(CNC(=O)c2cc3ccc(-c4cn[nH]c4)nc3n2C)c1` the value was less than 100 nM; for `COc1cccc(CNC(=O)c2cc3ccc(-c4cn[nH]c4)nc3[nH]2)c1`, less than 100 nM; for `COc1cccc(CNC(=O)c2nn(CCN(C)C)c3cc(-c4ccncc4)ccc23)c1`, less than 100 nM.
